Converted amounts (≈) assume the structure as drawn.
Legend:
Format in all cases: functional
[1] = tested on: Mycobacterium tuberculosis; test: Antimycobacterial activity against isoniazid-resistant Mycobacterium tuberculosis H37Rv SRI 1369 after 7 days by broth microdilution assay; details: H37Rv SRI 1369, 168 h
[2] = tested on: Mycobacterium tuberculosis; test: Antimycobacterial activity against rifampin-resistant Mycobacterium tuberculosis H37Rv SRI 1367 at MIC after 7 days by broth microdilution assay relative to control
[3] = tested on: Mycobacterium tuberculosis; test: Antimycobacterial activity against ofloxacin-resistant Mycobacterium tuberculosis H37Rv SRI 4000 at MIC after 7 days by broth microdilution assay relative to control
[4] = tested on: Mycobacterium tuberculosis; test: Antimycobacterial activity against ofloxacin-resistant Mycobacterium tuberculosis H37Rv SRI 4000 after 7 days by broth microdilution assay; details: H37Rv SRI 4000, 168 h
[5] = tested on: Mycobacterium tuberculosis; test: Antimycobacterial activity against rifampin-resistant Mycobacterium tuberculosis H37Rv SRI 1367 after 7 days by broth microdilution assay; details: H37Rv SRI 1367, 168 h
[6] = tested on: Mycobacterium tuberculosis; test: Antimycobacterial activity against isoniazid-resistant Mycobacterium tuberculosis H37Rv SRI 1369 at MIC after 7 days by broth microdilution assay relative to control

| SMILES | MIC [1] | inhibition (INH) [2] | inhibition (INH) [3] | MIC [4] | MIC [5] | inhibition (INH) [6] |
| --- | --- | --- | --- | --- | --- | --- |
| CCOC(=O)c1cc(C(=O)c2ccccc2)n2ccc(-c3cc[n+](CC(=O)c4ccc(OC)cc4)cc3)cc12.[Br-] | 4.69 µg/mL | 65% | 61% | 1.17 µg/mL | 1.17 µg/mL | 60% |
| NNC(=O)c1ccncc1 [ISONIAZID] | – | 92% | – | – | 0.02 µg/mL (≈ 0.146 µM) | – |
| CO[C@H]1/C=C/O[C@@]2(C)Oc3c(C)c(O)c4c(O)c(c(/C=N/N5CCN(C)CC5)c(O)c4c3C2=O)NC(=O)/C(C)=C\C=C\[C@H](C)[C@H](O)[C@@H](C)[C@@H](O)[C@@H](C)[C@H](OC(C)=O)[C@@H]1C [RIFAMPIN] | 0.02 µg/mL (≈ 0.0243 µM) | – | 80% | 0.05 µg/mL (≈ 0.0608 µM) | – | 56% |

Reference: ChEMBL document CHEMBL3120161, “Antimycobacterial activity of nitrogen heterocycles derivatives: bipyridine derivatives. Part III” (Eur J Med Chem, 2014)
